According to ChEMBL document CHEMBL4138123, “Design, synthesis and biological evaluation of novel pyrazolochalcones as potential modulators of PI3K/Akt/mTOR pathway and inducers of apoptosis in breast cancer cells” (Eur J Med Chem, 2017):

Key:
Type in all cases: functional
[1] = system: RPMI-8226; experiment: Cytotoxicity against human RPMI8226 cells assessed as growth inhibition after 48 hrs by sulforhodamine B assay; conditions: RPMI-8226, 48 h
[2] = system: SNB-19; experiment: Cytotoxicity against human SNB19 cells assessed as growth inhibition after 48 hrs by sulforhodamine B assay; conditions: SNB-19, 48 h; for CC50: read-out: LC50 (the source's name)
[3] = system: SK-MEL-5; experiment: Cytotoxicity against human SK-MEL-5 cells assessed as growth inhibition after 48 hrs by sulforhodamine B assay; conditions: SK-MEL-5, 48 h
[4] = system: M14; experiment: Cytotoxicity against human M14 cells assessed as cell growth at 0.01 uM after 48 hrs by sulforhodamine B assay relative to control; conditions: M14, 48 h, read-out: Activity
[5] = system: KM12; experiment: Cytotoxicity against human KM12 cells assessed as cell growth at 0.01 uM after 48 hrs by sulforhodamine B assay relative to control; conditions: KM12, 48 h, read-out: Activity
[6] = system: NCI-H522; experiment: Cytotoxicity against human NCI-H522 cells assessed as cell growth at 0.01 uM after 48 hrs by sulforhodamine B assay relative to control; conditions: NCI-H522, 48 h, read-out: Activity
[7] = system: NCI-H322M; experiment: Cytotoxicity against human NCI-H322M cells assessed as cell growth at 0.01 uM after 48 hrs by sulforhodamine B assay relative to control; conditions: read-out: Activity
[8] = system: K562; experiment: Cytotoxicity against human K562 cells assessed as cell growth at 0.1 uM after 48 hrs by sulforhodamine B assay relative to control; conditions: K562, 48 h, read-out: Activity
[9] = system: NCI-H23; experiment: Cytotoxicity against human NCI-H23 cells assessed as cell growth at 0.1 uM after 48 hrs by sulforhodamine B assay relative to control; conditions: NCI-H23, 48 h, read-out: Activity
[10] = system: COLO 205; experiment: Cytotoxicity against human COLO205 cells assessed as cell growth at 0.1 uM after 48 hrs by sulforhodamine B assay relative to control; conditions: COLO 205, 48 h, read-out: Activity
[11] = system: SW-620; experiment: Cytotoxicity against human SW620 cells assessed as cell growth at 0.1 uM after 48 hrs by sulforhodamine B assay relative to control; conditions: SW-620, 48 h, read-out: Activity
[12] = system: SK-MEL-5; experiment: Cytotoxicity against human SK-MEL-5 cells assessed as cell growth at 0.1 uM after 48 hrs by sulforhodamine B assay relative to control; conditions: SK-MEL-5, 48 h, read-out: Activity
[13] = system: PC-3; experiment: Cytotoxicity against human PC3 cells assessed as cell growth at 0.1 uM after 48 hrs by sulforhodamine B assay relative to control; conditions: PC-3, 48 h, read-out: Activity
[14] = system: BT-549; experiment: Cytotoxicity against human BT549 cells assessed as cell growth at 0.1 uM after 48 hrs by sulforhodamine B assay relative to control; conditions: BT-549, 48 h, read-out: Activity
[15] = system: NCI-H522; experiment: Cytotoxicity against human NCI-H522 cells assessed as cell growth at 1 uM after 48 hrs by sulforhodamine B assay relative to control; conditions: NCI-H522, 48 h, read-out: Activity
[16] = system: SF-268; experiment: Cytotoxicity against human SF268 cells assessed as cell growth at 1 uM after 48 hrs by sulforhodamine B assay relative to control; conditions: SF-268, 48 h, read-out: Activity
[17] = system: SK-MEL-5; experiment: Cytotoxicity against human SK-MEL-5 cells assessed as cell growth at 1 uM after 48 hrs by sulforhodamine B assay relative to control; conditions: SK-MEL-5, 48 h, read-out: Activity
[18] = system: OVCAR-4; experiment: Cytotoxicity against human OVCAR4 cells assessed as cell growth at 1 uM after 48 hrs by sulforhodamine B assay relative to control; conditions: OVCAR-4, 48 h, read-out: Activity
[19] = system: ACHN; experiment: Cytotoxicity against human ACHN cells assessed as cell growth at 1 uM after 48 hrs by sulforhodamine B assay relative to control; conditions: read-out: Activity
[20] = system: CCRF-CEM; experiment: Cytotoxicity against human CCRF-CEM cells assessed as cell growth at 10 uM after 48 hrs by sulforhodamine B assay relative to control; conditions: read-out: Activity
[21] = system: NCI-H23; experiment: Cytotoxicity against human NCI-H23 cells assessed as cell growth at 10 uM after 48 hrs by sulforhodamine B assay relative to control; conditions: NCI-H23, 48 h, read-out: Activity
[22] = system: COLO 205; experiment: Cytotoxicity against human COLO205 cells assessed as cell growth at 10 uM after 48 hrs by sulforhodamine B assay relative to control; conditions: COLO 205, 48 h, read-out: Activity
[23] = system: HCT-116; experiment: Cytotoxicity against human HCT116 cells assessed as cell growth at 10 uM after 48 hrs by sulforhodamine B assay relative to control; conditions: HCT-116, 48 h, read-out: Activity
[24] = system: HCT-15; experiment: Cytotoxicity against human HCT15 cells assessed as cell growth at 10 uM after 48 hrs by sulforhodamine B assay relative to control; conditions: HCT-15, 48 h, read-out: Activity
[25] = system: SW-620; experiment: Cytotoxicity against human SW620 cells assessed as cell growth at 10 uM after 48 hrs by sulforhodamine B assay relative to control; conditions: SW-620, 48 h, read-out: Activity
[26] = system: UACC-62; experiment: Cytotoxicity against human UACC62 cells assessed as cell growth at 10 uM after 48 hrs by sulforhodamine B assay relative to control; conditions: UACC-62, 48 h, read-out: Activity
[27] = system: ACHN; experiment: Cytotoxicity against human ACHN cells assessed as cell growth at 10 uM after 48 hrs by sulforhodamine B assay relative to control; conditions: read-out: Activity
[28] = system: MDA-MB-231; experiment: Cytotoxicity against human MDA-MB-231 cells assessed as cell growth at 10 uM after 48 hrs by sulforhodamine B assay relative to control; conditions: MDA-MB-231, 48 h, read-out: Activity
[29] = system: MDA-MB-468; experiment: Cytotoxicity against human MDA-MB-468 cells assessed as cell growth at 10 uM after 48 hrs by sulforhodamine B assay relative to control; conditions: MDA-MB-468, 48 h, read-out: Activity
[30] = system: HL-60(TB); experiment: Cytotoxicity against human HL-60(TB) cells assessed as cell growth at 100 uM after 48 hrs by sulforhodamine B assay relative to control; conditions: HL-60, 48 h, read-out: Activity
[31] = system: A549; experiment: Cytotoxicity against human A549/ATCC cells assessed as cell growth at 100 uM after 48 hrs by sulforhodamine B assay relative to control; conditions: A549, 48 h, read-out: Activity
[32] = system: NCI-H23; experiment: Cytotoxicity against human NCI-H23 cells assessed as cell growth at 100 uM after 48 hrs by sulforhodamine B assay relative to control; conditions: NCI-H23, 48 h, read-out: Activity
[33] = system: NCI-H460; experiment: Cytotoxicity against human NCI-H460 cells assessed as cell growth at 100 uM after 48 hrs by sulforhodamine B assay relative to control; conditions: NCI-H460, 48 h, read-out: Activity
[34] = system: SN12C; experiment: Cytotoxicity against human SN12C cells assessed as cell growth at 100 uM after 48 hrs by sulforhodamine B assay relative to control; conditions: read-out: Activity
[35] = system: DU-145; experiment: Cytotoxicity against human DU145 cells assessed as cell growth at 0.01 uM after 48 hrs by sulforhodamine B assay relative to control; conditions: DU-145, 48 h, read-out: Activity

SMILES: COc1cc(-c2cc(/C=C/C(=O)c3ccc(F)c(F)c3)[nH]n2)cc(OC)c1OC
- LC50 [1]: > 100 µM
- TGI [1]: 6.01 µM
- TGI [2]: > 100 µM
- CC50 [2]: > 100 µM
- LC50 (concentration killing 50% of cells) [3]: 26.7 µM
- TGI [3]: 6.41 µM
- growth at 0.01 µM [4]: 94%
- growth at 0.01 µM [5]: 96%
- growth at 0.01 µM [6]: 96%
- growth at 0.01 µM [7]: 94%
- growth at 0.1 µM [8]: 109%
- growth at 0.1 µM [9]: 92%
- growth at 0.1 µM [10]: 98%
- growth at 0.1 µM [11]: 97%
- growth at 0.1 µM [12]: 96%
- growth at 0.1 µM [13]: 93%
- growth at 0.1 µM [14]: 105%
- growth at 1 µM [15]: 71%
- growth at 1 µM [16]: 83%
- growth at 1 µM [17]: 90%
- growth at 1 µM [18]: 67%
- growth at 1 µM [19]: 100%
- growth at 10 µM [20]: 7%
- growth at 10 µM [21]: -7%
- growth at 10 µM [22]: -90%
- growth at 10 µM [23]: 9%
- growth at 10 µM [24]: 9%
- growth at 10 µM [25]: 12%
- growth at 10 µM [26]: -13%
- growth at 10 µM [27]: 2%
- growth at 10 µM [28]: -38%
- growth at 10 µM [29]: -2%
- growth at 100 µM [30]: -49%
- growth at 100 µM [31]: -15%
- growth at 100 µM [32]: -27%
- growth at 100 µM [33]: -54%
- growth at 100 µM [34]: -22%

SMILES: COc1ccc(-c2cc(/C=C/C(=O)c3ccc4c(c3)OCO4)[nH]n2)cc1OC
- GI50 [1]: 0.37 µM
- GI50 [2]: 1.67 µM
- GI50 [3]: 1.58 µM

SMILES: COc1ccc(C(=O)/C=C/c2cc(-c3ccc(OC)c(OC)c3)n[nH]2)cc1OC
- GI50 [1]: 0.357 µM
- TGI [1]: 2.26 µM
- GI50 [2]: 1.67 µM
- TGI [2]: 4.16 µM
- CC50 [2]: > 100 µM
- GI50 [3]: 1.58 µM
- TGI [3]: 2.96 µM
- growth at 0.01 µM [4]: 89%
- growth at 0.01 µM [5]: 102%
- growth at 0.01 µM [6]: 91%
- growth at 0.01 µM [7]: 104%
- growth at 0.01 µM [35]: 106%
- growth at 0.1 µM [8]: 97%
- growth at 0.1 µM [9]: 103%
- growth at 0.1 µM [10]: 98%
- growth at 0.1 µM [11]: 95%
- growth at 0.1 µM [12]: 96%
- growth at 0.1 µM [13]: 95%
- growth at 0.1 µM [14]: 89%
- growth at 1 µM [15]: 82%
- growth at 1 µM [16]: 74%
- growth at 1 µM [17]: 86%
- growth at 1 µM [18]: 72%
- growth at 1 µM [19]: 76%
- growth at 10 µM [20]: -5%
- growth at 10 µM [21]: -30%
- growth at 10 µM [22]: -84%
- growth at 10 µM [23]: -69%
- growth at 10 µM [24]: -19%
- growth at 10 µM [25]: -24%
- growth at 10 µM [26]: -57%
- growth at 10 µM [27]: -54%
- growth at 10 µM [28]: -18%
- growth at 10 µM [29]: -80%
- growth at 100 µM [30]: 1%
- growth at 100 µM [31]: -19%
- growth at 100 µM [32]: -21%
- growth at 100 µM [33]: -42%
- growth at 100 µM [34]: -37%

SMILES: COc1ccc(-c2cc(/C=C/C(=O)c3ccc(N)cc3)[nH]n2)cc1OC
- GI50 [1]: 1.28 µM
- LC50 [1]: > 100 µM
- TGI [1]: 5.52 µM
- GI50 [2]: 4.36 µM
- TGI [2]: 18 µM
- CC50 [2]: 46.1 µM
- GI50 [3]: 3.16 µM
- LC50 (concentration killing 50% of cells) [3]: 36.1 µM
- TGI [3]: 11.5 µM
- growth at 0.01 µM [4]: 95%
- growth at 0.01 µM [5]: 102%
- growth at 0.01 µM [6]: 92%
- growth at 0.01 µM [7]: 96%
- growth at 0.01 µM [35]: 109%
- growth at 0.1 µM [8]: 98%
- growth at 0.1 µM [9]: 103%
- growth at 0.1 µM [10]: 95%
- growth at 0.1 µM [11]: 97%
- growth at 0.1 µM [12]: 95%
- growth at 0.1 µM [13]: 95%
- growth at 0.1 µM [14]: 92%
- growth at 1 µM [15]: 87%
- growth at 1 µM [16]: 88%
- growth at 1 µM [17]: 94%
- growth at 1 µM [18]: 69%
- growth at 1 µM [19]: 88%
- growth at 10 µM [20]: -8%
- growth at 10 µM [21]: 21%
- growth at 10 µM [22]: -79%
- growth at 10 µM [23]: -73%
- growth at 10 µM [24]: -27%
- growth at 10 µM [25]: -18%
- growth at 10 µM [26]: 3%
- growth at 10 µM [27]: -82%
- growth at 10 µM [28]: 24%
- growth at 10 µM [29]: -65%
- growth at 100 µM [30]: 3%
- growth at 100 µM [31]: -76%
- growth at 100 µM [32]: -51%
- growth at 100 µM [33]: -76%
- growth at 100 µM [34]: -90%
